This is an account of results in patent US8575106B2, “Cosmetic uses of modified stressed yeast extracts and related compositions” (Avon Products, Inc., priority 2009, dated 2013).

Test [1] concerns B16 mouse melanoma cell lines. Briefly: Melanin synthesis in B16 cells, normalized to cell viability (MTT). The class given is cell-based. The conditions noted are these: 100 μM 2-APB, 7 days, relative to control. As for the experimental part:
Next, the effects of 2-APB and modified peptide fractions having a zinc-complexed peptide comprising SEQ ID NO:1 on melanin synthesis were examined in B16 cells. B16 mouse melanoma cell lines (ATCC, cat. #: CRL-6475) were grown in 96-well tissue culture treated dishes (Falcon) and treated with a test compound to determine its ability to modulate pigment formation (melanin synthesis). Specifically, cells were exposed to 100 μM 2-APB or modified yeast peptide fractions comprising different concentrations of zinc-complexed peptide comprising SEQ ID NO:1, including 1% and 0.1% zinc-complexed peptide, for seven (7) days. Following the treatment period, the level of melanin synthesized was quantified using a Packard micro-plate reader at 540 nm.
After quantifying the amount of melanin synthesized, cell viability was determined using the MTT conversion method. […] After melanin synthesis quantification, the cultures were exposed to MTT dye solution with a concentration of 1 mg/ml for three hours. […] MTT dye uptake and conversion by viable cells was determined by measuring the extracted formazan at 570 nm using a Packard micro-plate reader.
After normalizing to cell viability, total pigmentation then was calculated, and expressed as a percent activity of control. […]

For test [2], the system named is B16 melanoma cells. Description: Calcium influx into B16 melanoma cells (Fluo-4 NW Calcium Assay, Thapsigargin-stimulated). Type of test: cell-based, mouse. The conditions noted are these: 100 μM 2-APB, area under curve of calcium influx peak vs vehicle control. As for the experimental part: Modified yeast peptide fractions comprising a zinc-complexed peptide comprising SEQ ID NO:1 were tested in vitro for the ability to inhibit calcium influx into pigment-producing cells. An experiment was designed to measure intracellular calcium in B16 melanoma cells using Fluo-4 NW Calcium Assay Kits (Invitrogen) as per manufacturer's instructions. B16 mouse melanoma cell lines (ATCC, cat. #: CRL-6475) were grown in 96-well tissue culture treated dishes in growth medium. Prior to calcium treatment, growth medium from the B16 cell cultures was removed and 100 μL of the dye loading solution was added quickly to each well of a 96-well plate. Plates were incubated at 37° C. for 30 minutes, then at room temperature for an additional 30 minutes. Dye buffer was removed and plates were washed once with 1×PBS and replaced with an assay buffer that contains calcium (and was formed according to the manufacturer's directions) along with a test compound. […]
Fluorescence was measured using a micro-plate reader at excitation/emission wavelengths of 485 nm/530 nm, respectively. The reader was set to read florescence every 30 seconds for a period of 5 minutes. […] The fluorescence micro-plate reader was set to take fluorescence measurements every 30 seconds for a period of 30 minutes, again at excitation/emission wavelengths of 485 nm/530 nm, respectively. […]

Take `NCCOB(c1ccccc1)c1ccccc1` [2-APB, 2-aminoethyl diphenylborate]: the “inhibition of melanin synthesis” value in test [1] is 77%. In test [2], the “inhibition of calcium entry into the cells” value is reported as 86%.
